From patent publication US20220098203A1 (priority 2018, published 2022) come the findings set out here.

The subject of assay [1] is SAM in HCT116 MTAP-deleted cells. In words: Cellular assay of target engagement (SAM), LC-MS/MS. Format: cell-based, human. The conditions noted are these: 72 h, read-out: Cell 72 h SAM Inhibition (MTAP −/−). The method in brief:
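HCT116 cells with MTAP deleted were treated with compound for 72 h at 37°C/5% CO2. After quenching lysis in cold 80% methanol with 1 M acetic acid, SAM was quantified by LC-MS/MS against a d3-SAM internal standard.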

The test system of assay [2] is HCT116 MTAP+/+. In words: Inhibition of cellular proliferation (Cell Titer Glo), HCT116 MTAP+/+. Format: cell-based. Conditions: Homo sapiens, HCT-116, 96 h, Table 5a, 4 days, read-out: 4 Day Relative Growth Inhibition (MTAP +/+). The method in brief:
(§1)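 Isogenic HCT116 MTAP+/+ and MTAP−/− cells were plated, treated with MAT2A inhibitor after 24 h, and incubated 4 days at 37 °C. Proliferation was read by CellTiter-Glo ATP luminescence, blank-subtracted and normalized to 0.2% DMSO control.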
For orientation: In ATP-based viability assays light output follows the ATP content of the culture.

Assay [3] deals with T1, MAT2A homodimer (Homo sapiens, UniProt P31153).
T1 construct: inferred from the Ni sepharose purification and imidazole elution; made in house; host or cells: SF9 insect cells, recombinant baculovirus (Bac to Bac, pFASTBAC1)
T1 sequence (P31153 whole entry): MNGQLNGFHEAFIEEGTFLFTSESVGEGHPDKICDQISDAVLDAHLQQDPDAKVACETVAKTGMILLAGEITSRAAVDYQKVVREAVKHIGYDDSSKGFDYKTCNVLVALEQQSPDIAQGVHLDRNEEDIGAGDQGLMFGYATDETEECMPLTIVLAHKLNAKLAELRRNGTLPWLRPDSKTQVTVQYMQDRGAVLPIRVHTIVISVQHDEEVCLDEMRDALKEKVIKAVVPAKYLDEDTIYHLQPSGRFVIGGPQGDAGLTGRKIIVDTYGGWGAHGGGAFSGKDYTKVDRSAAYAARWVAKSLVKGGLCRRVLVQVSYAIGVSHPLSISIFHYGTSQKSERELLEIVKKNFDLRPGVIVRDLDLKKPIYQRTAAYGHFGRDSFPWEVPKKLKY
In words: MAT2A biochemical assay (liberated phosphate, PiColorLock Gold). Conditions: Table 5a; MAT2A biochemical assay; read-out: Enzyme Inhibition. Summed up: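 Baculovirus/Sf9-expressed, Ni-purified MAT2A homodimer preincubated with compound 60 min at 25 °C, then reacted 60 min at 25 °C with substrate mix of 500 μM ATP and 400 μM L-methionine, pH 7.0 (mix, not final levels). Phosphate released with SAM measured by PiColorLock Gold against phosphate standard curve.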

In assay [4] the test system is HCT116 MTAP-/-. Briefly: Inhibition of cellular proliferation (Cell Titer Glo), HCT116 MTAP-/-. The conditions noted are these: 4 days, read-out: 4 Day Relative Growth Inhibition (MTAP −/−). Format: cell-based, human. Summed up: as §1
The mark [5] stands for this setting: Homo sapiens, HCT-116, Table 5a.
The mark [6] stands for this setting: Homo sapiens, HCT-116, 96 h, Table 5a.
The mark [7] stands for this setting: Table 6, select pairs of compounds.

Each structure is given as a SMILES string. Read-outs that look alike come from different tables or passages of the source.

With `CCOc1ccc2c(n1)N(c1ccc(OC(F)(F)F)nc1)C(=O)N(c1ccc3nn(C)cc3c1)C2` [Example 147, 7-ethoxy-3-(2-methyl-2H-indazol-5-yl)-1-(6-(trifluoromethoxy)pyridin-3-yl)-3,4-dihydropyrido[2,3-d]pyrimidin-2(1H)-one], the IC50 was 100 to 1000 nM in assay [1] (setting [5]), over 1000 nM in assay [2], under 100 nM in assay [3] and 100 to 1000 nM in assay [4] (setting [6]).
For `CCOc1ccc2c(n1)N(c1ccc(C(F)F)nc1)C(=O)N(c1ccc3nn(C)cc3c1)C2` [Example 149, 1-(6-(difluoromethyl)pyridin-3-yl)-7-ethoxy-3-(2-methyl-2H-indazol-5-yl)-3,4-dihydropyrido[2,3-d]pyrimidin-2(1H)-one], the IC50 is 100 to 1000 nM in assay [1] (setting [5]), over 1000 nM in assay [2], under 100 nM in assay [3] and under 100 nM in assay [4] (setting [6]).
With `CCOc1ccc2c(n1)N(c1ccc(C3CC3)nc1)C(=O)N(c1ccc3nn(C)cc3c1)C2` [Example 152, 1-(6-cyclopropylpyridin-3-yl)-7-ethoxy-3-(2-methyl-2H-indazol-5-yl)-3,4-dihydropyrido[2,3-d]pyrimidin-2(1H)-one], the IC50 in assay [1] (setting [5]) is under 100 nM; in assay [2], over 1000 nM; in assay [3], under 100 nM; in assay [4] (setting [6]) it was 100 to 1000 nM.
For `CCOc1ccc2c(n1)N(c1ccc(-c3nnc[nH]3)cc1)C(=O)N(c1ccc3nn(C)cc3c1)C2` [Example 153, 1-(4-(4H-1,2,4-triazol-3-yl)phenyl)-7-ethoxy-3-(2-methyl-2H-indazol-5-yl)-3,4-dihydropyrido[2,3-d]pyrimidin-2(1H)-one], the IC50 in assay [1] (setting [5]) was under 100 nM; in assay [2] it was over 1000 nM; in assay [3], under 100 nM; in assay [4] (setting [6]), under 100 nM.
On to `CCOc1ccc2c(n1)N(c1ccc(-c3nnc[nH]3)cc1)C(=O)N(c1ccc3ncn(C)c3c1)C2` [Example 154, 1-(4-(4H-1,2,4-triazol-3-yl)phenyl)-7-ethoxy-3-(1-methyl-1H-benzo[d]imidazol-6-yl)-3,4-dihydropyrido[2,3-d]pyrimidin-2(1H)-one], for which the IC50 in assay [1] (setting [5]) was under 100 nM; in assay [2] it was 100 to 1000 nM; in assay [3] it was under 100 nM; in assay [4] (setting [6]), 100 to 1000 nM.
For the molecule `CCOc1ccc2c(n1)N(c1ccc(-c3nnc[nH]3)cc1)C(=O)N(c1ccc(OC)cc1)C2` [Example 155, 1-(4-(4H-1,2,4-triazol-3-yl)phenyl)-7-ethoxy-3-(4-methoxyphenyl)-3,4-dihydropyrido[2,3-d]pyrimidin-2(1H)-one], the IC50 in assay [1] (setting [5]) is under 100 nM; in assay [2] it was 100 to 1000 nM; in assay [3] it was under 100 nM; in assay [4] (setting [6]), 100 to 1000 nM.
Consider `COc1ccc(N2C(=O)N(c3ccc4nn(C)cc4c3)Cc3ccc(SCC(F)(F)F)nc32)cc1` [Example 161, 1-(4-methoxyphenyl)-3-(2-methyl-2H-indazol-5-yl)-7-((2,2,2-trifluoroethyl)thio)-3,4-dihydropyrido[2,3-d]pyrimidin-2(1H)-one], for which the IC50 is 100 to 1000 nM in assay [1] (setting [5]); 100 to 1000 nM in assay [1] (setting [7]); over 1000 nM in assay [2]; under 100 nM in assay [3]; 100 to 1000 nM in assay [4] (setting [6]); 100 to 1000 nM in assay [4] (setting [7]).
On to `COc1ccc(N2C(=O)N(c3ccc4nn(C)cc4c3)Cc3ccc(NC4CCC4)nc32)cc1` [Example 162, 7-(cyclobutylamino)-1-(4-methoxyphenyl)-3-(2-methyl-2H-indazol-5-yl)-3,4-dihydropyrido[2,3-d]pyrimidin-2(1H)-one], for which the IC50 is 100 to 1000 nM in assay [1] (setting [5]), over 1000 nM in assay [2], under 100 nM in assay [3] and 100 to 1000 nM in assay [4] (setting [6]).
As for `[2H]C([2H])([2H])Oc1ccc(N2C(=O)N(c3ccc4nn(C)cc4c3)Cc3ccc(OCCF)nc32)cc1` [Example 163, 7-(2-fluoroethoxy)-1-(4-methoxy-d3-phenyl)-3-(2-methyl-2H-indazol-5-yl)-3,4-dihydropyrido[2,3-d]pyrimidin-2(1H)-one], the IC50 in assay [1] (setting [5]) is 100 to 1000 nM; in assay [2], over 1000 nM; in assay [3], under 100 nM; in assay [4] (setting [6]), 100 to 1000 nM.
`[2H]C([2H])([2H])Oc1ccc(N2C(=O)N(c3ccc4nn(C)cc4c3)Cc3ccc(OCC4CC4)nc32)cc1` [Example 164, 7-(cyclopropylmethoxy)-1-(4-methoxy-d3-phenyl)-3-(2-methyl-2H-indazol-5-yl)-3,4-dihydropyrido[2,3-d]pyrimidin-2(1H)-one]: the IC50 in assay [1] (setting [5]) was 100 to 1000 nM; in assay [2], over 1000 nM; in assay [3], under 100 nM; in assay [4] (setting [6]), 100 to 1000 nM.
As to `[2H]C([2H])([2H])Oc1ccc(N2C(=O)N(c3ccc4nn(C)cc4c3)Cc3ccc(OCCC)nc32)cc1` [Example 165, 1-(4-methoxy-d3-phenyl)-3-(2-methyl-2H-indazol-5-yl)-7-propoxy-3,4-dihydropyrido[2,3-d]pyrimidin-2(1H)-one], the IC50 is 100 to 1000 nM in assay [1] (setting [5]), over 1000 nM in assay [2], under 100 nM in assay [3] and 100 to 1000 nM in assay [4] (setting [6]).
For the molecule `[2H]C([2H])([2H])Oc1ccc(N2C(=O)N(c3ccc4nn(C)cc4c3)Cc3ccc(OC(C)C)nc32)cc1` [Example 167, 7-isopropoxy-1-(4-methoxy-d3-phenyl)-3-(2-methyl-2H-indazol-5-yl)-3,4-dihydropyrido[2,3-d]pyrimidin-2(1H)-one], the IC50 in assay [1] (setting [5]) was under 100 nM; in assay [2], over 1000 nM; in assay [3], under 100 nM; in assay [4] (setting [6]), under 100 nM.
In the case of `[2H]C([2H])([2H])Oc1ccc(N2C(=O)N(c3ccc4nn(C)cc4c3)Cc3ccc(OC(C)C(F)F)nc32)cc1` (stereo not drawn) [Example 168, 7-((1,1-difluoropropan-2-yl)oxy)-1-(4-methoxy-d3-phenyl)-3-(2-methyl-2H-indazol-5-yl)-3,4-dihydropyrido[2,3-d]pyrimidin-2(1H)-one], the IC50 was under 100 nM in assay [1] (setting [5]), over 1000 nM in assay [2], under 100 nM in assay [3] and under 100 nM in assay [4] (setting [6]).
Turning to `Cn1cc2cc(N3Cc4ccc(OCC(F)F)nc4N(c4ccc5[nH]ccc5c4)C3=O)ccc2n1` [Example 169, 7-(2,2-difluoroethoxy)-1-(1H-indol-5-yl)-3-(2-methyl-2H-indazol-5-yl)-3,4-dihydropyrido[2,3-d]pyrimidin-2(1H)-one], the IC50 was under 100 nM in assay [1] (setting [5]), over 1000 nM in assay [2], under 100 nM in assay [3] and under 100 nM in assay [4] (setting [6]).
In the case of `Cn1cc2cc(N3Cc4ccc(OCC(F)F)nc4N(c4ccc5scnc5c4)C3=O)ccc2n1` [Example 170, 1-(benzo[d]thiazol-5-yl)-7-(2,2-difluoroethoxy)-3-(2-methyl-2H-indazol-5-yl)-3,4-dihydropyrido[2,3-d]pyrimidin-2(1H)-one], the IC50 in assay [1] (setting [5]) is under 100 nM; in assay [2] it was 100 to 1000 nM; in assay [3] it was under 100 nM; in assay [4] (setting [6]), under 100 nM.
As to `Cn1cc2cc(N3Cc4ccc(OCC(F)F)nc4N(c4ccc5c(ccn5C)c4)C3=O)ccc2n1` [Example 172, 7-(2,2-difluoroethoxy)-1-(1-methyl-1H-indol-5-yl)-3-(2-methyl-2H-indazol-5-yl)-3,4-dihydropyrido[2,3-d]pyrimidin-2(1H)-one], the IC50 is under 100 nM in assay [1] (setting [5]), 100 to 1000 nM in assay [2], under 100 nM in assay [3] and under 100 nM in assay [4] (setting [6]).
On to `Cn1cc2cc(N3Cc4ccc(OCC(F)F)nc4N(c4ccc5ncccc5c4)C3=O)ccc2n1` [Example 175, 7-(2,2-difluoroethoxy)-3-(2-methyl-2H-indazol-5-yl)-1-(quinolin-6-yl)-3,4-dihydropyrido[2,3-d]pyrimidin-2(1H)-one], for which the IC50 in assay [1] (setting [5]) was under 100 nM; in assay [2] it was 100 to 1000 nM; in assay [3], under 100 nM; in assay [4] (setting [6]), 100 to 1000 nM.
As to `Cn1cc2cc(N3Cc4ccc(OCC(F)F)nc4N(c4ccc5sncc5c4)C3=O)ccc2n1` [Example 176, 1-(benzo[d]isothiazol-5-yl)-7-(2,2-difluoroethoxy)-3-(2-methyl-2H-indazol-5-yl)-3,4-dihydropyrido[2,3-d]pyrimidin-2(1H)-one], the IC50 in assay [1] (setting [5]) is 100 to 1000 nM; in assay [2], over 1000 nM; in assay [3], under 100 nM; in assay [4] (setting [6]), 100 to 1000 nM.
With `Cn1cc2cc(N3Cc4ccc(OCC(F)F)nc4N(c4ccc5nscc5c4)C3=O)ccc2n1` [Example 177, 1-(benzo[c]isothiazol-5-yl)-7-(2,2-difluoroethoxy)-3-(2-methyl-2H-indazol-5-yl)-3,4-dihydropyrido[2,3-d]pyrimidin-2(1H)-one], the IC50 is under 100 nM in assay [1] (setting [5]), over 1000 nM in assay [2], under 100 nM in assay [3] and 100 to 1000 nM in assay [4] (setting [6]).
